In one experiment the test system is HES2-CMs. Briefly: Cytosolic Ca2+ transients (Fura-2/AM spectrofluorometry) in HES2-CMs. It counts as cell-based, human. As to the method:
Briefly, HES2 cells were grown on mitomycin C- (Sigma; St Louis, Mo., USA) inactivated mouse embryonic fibroblasts (mEFs). Culture medium consisted of DMEM (Invitrogen, Carlsbad, Calif.) containing 2 mM L-glutamine, insulin-transferrin-selenium, non-essential amino acids, 90 μM β-mercaptoethanol, and 20% FBS (Hyclone, Logan, Utah). HES2 cells were passaged manually (“cut-and-paste”), by cutting colony into pieces and removing them from the mEFs using dispase (8 mg/mL, Invitrogen, Carlsbad, Calif.). For cardiac differentiation, HES2 cells were removed from the mEFs, resuspended and broken into pieces, followed by co-culturing with the immortalized endoderm-like END2 cells at 100% confluence (6).
(§1) For isolating hESC-CMs, beating outgrowths were microsurgically dissected from H1- (7+11 to 17 or 18-24 days) and HES2- (18-24 days) derived EBs by a glass knife, (4) followed by incubation in collagenase II (1 mg/mL) at 37° C. for 30 min. The isolated cells were incubated with KB solution containing (mM): 85 KCl, 30 K2HPO4, 5 MgSO4, 1 EGTA, 2 Na2-ATP, 5 pyruvic acid, 5 creatine, 20 taurine, 20 d-glucose, at room temperature for 30 min. After the cells were plated on laminin-coated glass coverslips for 1 hr at 37° C., regular culture media was added. […] Calcium recordings from cell clusters containing 10-15 cells were performed within 48 hrs after plating.
(§2) A spectrofluorometric method with Fura-2/AM as the Ca^2+ indicator was used for measuring [Ca^2+]i. FLV- or hESC-CMs were incubated with 5 μM Fura-2/AM and 0.2% pluronic F-127 for 30 min at 37° C. Fluorescent signals obtained upon excitation at 340 nm (F340) and 380 nm (F380) were recorded from cells perfused with Tyrode solution containing (mM): 140 NaCl, 5.0 KCl, 1.0 CaCl2, 1.0 MaCl2, 10.0 glucose and 10 HEPES (pH 7.4) unless otherwise indicated. Data were analyzed using the Ionwizard software (Version 5, IonOptix) to generate the Ca transient parameters reported in this study. The F340/F380 ratio was used to represent cytosolic [Ca^2+]i. To induce cytoplasmic Ca^2+ transients, CMs were stimulated by electrically pulsing from 0.1 to 0.5 Hz or by caffeine application as indicated. For electrical stimulations, Ca^2+ transients were recorded and analyzed after a series of depolarizations that enabled each transient to fully decay so as to establish a steady-state SR content.

Experiment [1] concerns H1-CMs. As to the kind of experiment: Cytosolic Ca2+ transients (Fura-2/AM spectrofluorometry) in H1-CMs. It counts as cell-based, human. As to the method: H1 cells were grown on irradiated mEFs from 13.5-day embryos of CF-1 mice and propagated as previously described (3). The culture medium consisted of 80% Dulbecco's modified Eagle's medium, 20% knockout serum replacement, 4 ng/ml basic fibroblast growth factor, 1 mmol/L glutamine, 0.1 mmol/L β-mercaptoethanol, and 1% nonessential amino acid solution (all from Gibco-BRL, Gaithersburg, Md.). To induce the formation of embryoid bodies (EBs), hESCs were detached using 1 mg/mL type IV collagenase (Gibco-BRL) and transferred to Petri dishes containing 80% Dulbecco's modified Eagle's medium, 20% fetal bovine serum defined (HyClone, Logan, Utah), 1 mmol/L glutamine, and 1% nonessential amino acid stock in the absence of β-FGF. The aggregates were cultured in suspension for 7 days, followed by plating on gelatin-coated (0.1%; Sigma-Aldrich, St. Louis) 6-well plates to form hESC-CMs.
as §1, §2

For a further experiment, the system named is hESC-CMs. Briefly: Cytosolic Ca2+ transients (Fura-2/AM), HES2- and H1-CMs taken together. The experiment is classed as cell-based, human. The settings on record: for Effect on Vmax, upstroke of electrically evoked Ca2+ transients: 10 μM ryanodine, 30 min. Here is the method: as §1, §2
Experiment [2] relates to H1-CMs. Briefly: Cytosolic Ca2+ transients (Fura-2/AM) in adenovirus-transduced H1-CMs. Conditions: for Electrically evoked Ca2+ transient amplitude after ryanodine / Upstroke velocity of Ca2+ transients after ryanodine: 10 μM ryanodine, 30 minutes. It counts as cell-based, human. The text has this: Human cardiac calsequestrin 2 (sc119365, Origene technologies, MD) was cloned and ligated into adenovirus shuttle vectors pAdCMV-IRES-GFP using primers creating Bmt and Spe I sites (pAdCMV-CSQ-IRES-GFP). IRES, internal ribosomal entry site, allows the simultaneous translation of CSQ and the fluorescence marker (GFP) with a single transcript. The truncated CSQ mutant was constructed in pAdCMV-IRES-GFP by deleting 817 bp (53 bp-869 bp) using the two EcoN I sites inside CSQ's coding sequence (Ad-CSQΔ). The resulting product after Hind III cutting was self-ligated to produce another control of pAdCMV-GFP (Ad-GFP). Adenoviruses were generated by Cre-lox recombination of purified ψ5 viral DNA and shuttle vector DNA using Cre4 cells as described previously (56).
For isolating H1-CMs, beating outgrowths were microsurgically dissected from H1- derived EBs (7+14 to 7+21 days) by a glass knife, followed by incubation in collagenase II (1 mg/mL) at 37° C. for 30 min. The isolated cells were incubated with KB solution containing (mM): 85 KCl, 30 K2HPO4, 5 MgSO4, 1 EGTA, 2 Na2-ATP, 5 pyruvic acid, 5 creatine, 20 taurine, 20 d-glucose, at room temperature for 30 min. After the cells were plated on gelatin-coated glass coverslips for 1 hr at 37° C., regular culture media was added. After 48 hours, plated H1-CMs were infected with adenoviruses for 3 hours. Recordings were performed within 24-48 hrs after infection.
A spectrofluorometric method with Fura-2/AM as the Ca^2+ indicator was used for measuring [Ca^2+]i. H1-CMs were incubated with 10 μM Fura-2/AM and 0.2% pluronic F-127 for 30 min at 37° C. Fluorescent signals obtained upon excitation at 340 nm (F340) and 380 nm (F380) were recorded from cells perfused with Tyrode solution containing (mM): 140 NaCl, 5.0 KCl, 1.0 CaCl2, 1.0 MaCl2, 10.0 glucose and 10 HEPES (pH 7.4) unless otherwise indicated. Data were analyzed using the Ionwizard software (Version 5, IonOptix) to generate the Ca^2+ transient parameters reported in this study. The F340/F380 ratio was used to represent cytosolic [Ca^2+]i. To induce cytoplasmic Ca^2+ transients, CMs were stimulated by electrically pulsing from 0.1 to 0.5 Hz or by caffeine application as indicated.
For electrical stimulations, Ca^2+ transients were recorded and analyzed after a series of depolarizations that enabled each transient to fully decay so as to establish a steady-state SR content.

The test system of another experiment is FLV-CMs. Briefly: Cytosolic Ca2+ transients (Fura-2/AM spectrofluorometry) in human fetal left ventricular CMs. The experiment is classed as cell-based. The settings on record: caffeine 10 mM, brief exposure, no Ca2+ in extracellular bath.
Source text: Human FLV-CMs and adult-CMs were isolated and experimented according to protocols approved by the UC Davis IUPAC and IRB (Protocol #200614787-1 and # 200614594-1). Briefly, fetal human hearts (16-18 weeks, Advanced Bioscience Resources, INC. Alameda, Calif.) and adult human hearts (18+ years, National Disease Research Interchange, Philadelphia, Pa.) were perfused with enzymatic solutions using a customized Langendorff apparatus as previously described (19). […]
as §2, with “FLV- or hESC-CMs were incubated with 5 μM Fura-2/AM and 0.2% pluronic F-127 for 30 min at 37° C.” left out, “The F340/F380 ratio was used to represent cytosolic [Ca^2+]i. To induce cytoplasmic Ca^2+ transients, CMs were stimulated by electrically pulsing from 0.1 to 0.5 Hz or by caffeine application as indicated.” left out

With ryanodine, the “Effect on electrically evoked Ca2+ transient amplitude” value is “not affected” in the experiment on HES2-CMs (10 μM ryanodine, 30 min, caffeine-insensitive HES2-CMs) and “not affected” in the experiment with H1-CMs [1] (10 μM ryanodine, 30 min, caffeine-insensitive H1-CMs). Also, the “Reduction of electrically evoked Ca2+ transient amplitude” value with HES2-CMs (10 μM ryanodine, 30 min, caffeine-responsive HES2-CMs) is 37±4.8%; with H1-CMs [1] (10 μM ryanodine, 30 min, caffeine-responsive H1-CMs), 18±4.3%. Moreover, the “Effect on Vmax, upstroke of electrically evoked Ca2+ transients” value with hESC-CMs (caffeine-insensitive cells) is on record as “not”; with hESC-CMs (caffeine-responsive cells) it was “significantly slowed”. The “Electrically evoked Ca2+ transient amplitude after ryanodine” value in the experiment with H1-CMs [2] (H1-CMs transduced with Ad-CSQ) came out at 78%; in the experiment on H1-CMs [2] (H1-CMs transduced with Ad-CSQΔ) it was 84%; with H1-CMs [2] (H1-CMs transduced with Ad-GFP), 80%. For the same compound, the “Upstroke velocity of Ca2+ transients after ryanodine” value in the experiment with H1-CMs [2] (H1-CMs transduced with Ad-CSQ) is 67%; in the experiment with H1-CMs [2] (H1-CMs transduced with Ad-CSQΔ) it was 62%; in the experiment on H1-CMs [2] (H1-CMs transduced with Ad-GFP), 64%.

As to `C/C=C(/C)C(=O)O[C@H]1C(C)=C2[C@H]([C@@H]1OC(=O)CCCCCCC)[C@@](C)(OC(C)=O)C[C@H](OC(=O)CCC)[C@@]1(O)[C@H]2OC(=O)[C@@]1(C)O` [thapsigargin], the “Effect on Vmax, decay of electrically evoked Ca2+ transients” value is “significantly slowed” in the experiment on HES2-CMs (thapsigargin 0.5 μM, 15 min, HES2-CMs) and “significantly slowed” in the experiment with H1-CMs [1] (thapsigargin 0.5 μM, 15 min, H1-CMs). For the same compound, the “Effect on electrically evoked Ca2+ transient amplitude” value in the experiment on HES2-CMs (thapsigargin 0.5 μM, 15 min, caffeine-responsive HES2-CMs) is reported as “significantly reduced”; in the experiment with H1-CMs [1] (thapsigargin 0.5 μM, 15 min, caffeine-responsive H1-CMs) it was “significantly reduced”. The “Decay velocity of Ca2+ transients after thapsigargin” value with H1-CMs [2] (thapsigargin (0.5 μM), 15 min, H1-CMs transduced with Ad-CSQ) is given as 61%; in the experiment with H1-CMs [2] (thapsigargin (0.5 μM), 15 min, H1-CMs transduced with Ad-CSQΔ) it was 65%; in the experiment on H1-CMs [2] (thapsigargin (0.5 μM), 15 min, H1-CMs transduced with Ad-GFP) it was 69%. For the same compound, in the experiment on H1-CMs [2] (thapsigargin (0.5 μM), 15 min, transduced H1-CMs (all three groups)), the “Ca2+ transient amplitude after thapsigargin” value is reported as “unchanged”.

Regarding `Cn1c(=O)c2c(ncn2C)n(C)c1=O` [caffeine], the “Percentage of cells with caffeine-induced Ca2+ transients (caffeine-responsive cells)” value with HES2-CMs (caffeine 10 mM, brief exposure, no Ca2+ in extracellular bath, HES2-CMs) worked out at 40%; in the experiment with H1-CMs [1] (caffeine 10 mM, brief exposure, no Ca2+ in extracellular bath, H1-CMs), 35%. Also, the “Percentage of cells with caffeine-induced rise in cytosolic Ca2+ (caffeine-responsive cells)” value in the experiment with FLV-CMs came out at 65%. Besides, the “Percentage of cells with caffeine-induced large Ca2+ transients” value with hESC-CMs (hESC-CMs (HES2- and H1-CMs pooled)) is given as around 38%. In the experiment on H1-CMs [2] (caffeine 10 mM, brief exposure, transduced H1-CMs), the “Cytosolic Ca2+ response to caffeine” value was “robust cytosolic Ca^2+ increase”.

(Values after patent US9045731B2, “Compositions and methods for improving the functional efficacy of stem cell-derived cardiomyocytes” (The Regents of the University of California, priority 2007, dated 2015).)
